Data on two molecules can be found in patent US11072592B2, “Small molecules that enable cartilage rejuvenation” (The Regents of the University of California, priority 2015, dated 2021).

Assay [1] concerns cartilage explants. In words: Cartilage explant culture: tissue expansion, COL2 and GAG content. The class given is cell-based, pig. To be noted: for expansion of cartilage tissue in explants: cartilage explants/plugs in culture. The source says: The same stimulatory effect was achieved after treatment of explants with CRMs identified in our small molecule screen. […] This can test if activation of p-STAT3 and c-MYC by selected small molecules CRM-398 and -423 can result in in situ expansion of articular cartilage tissue.
Mature articular cartilage is comprised of chondrocytes contained within lacunae surrounded by dense extracellular matrix. In order for a regenerative response to occur, proliferation, survival and migration must all proceed in concert. […] We designed two sets of experiments to assess the ability of RCGD 423 to operate in this capacity. First, RCGD 423 or cytokines implicated in the growth and differentiation of articular cartilage were incubated with small plugs of cartilage tissue; after 5 weeks, the amount of COL2 and glycosaminoglycans (GAGs) were determined.
Cartilage explants were washed with PBS and then directly digested or stored at […]. For digestion, explants were transferred in digestion buffer composed of 1 mg/mL proteinase K in Tris/Ethylene diamine tetra-acetic acid (EDTA) buffer (pH 7.6) containing 18.5 μg/mL iodoacetamide and 1 μg/mL pepstatin A) for 16-72 h at 56° C. After complete digestion the GAG content was spectrophotometrically determined with 1,9-dimethylmethylene blue chloride staining in the phosphate buffer with ethylene diamine tetra-acetic acid buffer (14.2 g/L Na2HPO4 and 3.72 g/L Na2EDTA, pH 6.5) using an Infinite M1000 Pro microplate reader (Tecan) at an absorbance of 520 nm with chondroitin sulfate as a standard. Amount of total DNA in explants was determined by a CyQuant DNA Kit (Molecular Probes by Life Technology) using Qubit 1.0 fluorometer (Invitrogen).
Cultured explants were first digested in testicular hyaluronidase (0.05% in 50 mM HEPES) for 2 hours at 37° C. 0.5M glacial acetic acid was added to digestion solution to maximize the collagen swelling and provide best pepsin access. Pepsin (250 μg/ml) was then used to further digest the pellets in combination with rotation and occasional gentle vortexing at 4° C. for 18-24 hours. Cold tris base and NaOH were added to the digestion solution to neutralize the acetic acid. Digestion solution was vigorously vortexed immediately, and subsequently rotated at 4° C. overnight to maximize collagen solubility. Tubes were centrifuged to separate undigested tissue and supernatant. Any undigested tissue was subjected to the digestion process again. All supernatants were combined for ELISA. Concentration of collagen II in the supernatant was measured by Type I/II Collagen Detection Kit (Chondrex, Inc, Redmond, Wash.), according to manufacturer's instruction and normalized either to DNA content or wet weight of the explants determined prior to experimentation.

The test system of assay [2] is pSTAT3 and MYC. The assay is described as follows: Western blot of pSTAT3 and MYC in adult pig articular chondrocytes. The class given is cell-based. To be noted: for levels of MYC / levels of pSTAT3: adult pig articular chondrocytes, treated vs untreated, relative to histone H3. The source says: Only early passages of chondrocytes (passage 0-2) were used for experimentation to avoid de-differentiation and loss of cartilage phenotype (Wu et al., 2014). Cartilage explants were made using 1, 2 or 8 mm biopsy punch and wet weight of each explant determined prior to experimentation. For cell isolation cartilage tissue was digested as described previously (Wu et al., 2015). Postnatal paraffin embedded joint and growth plate specimens were kindly donated by Dr Marcel Karperien from the University of Twente (Netherlands) and Dr Nick Bernthal from University of California Los Angeles. All donated material was anonymous and carried no personal identifiers. Cell culture reagents were purchased from Life Technologies, Inc. (Grand Island, N.Y.). Growth factors LIF, OSM, IL-6, TNF-α, IL-1β were purchased from Life Technologies, Inc (Grand Island, N.Y.). STATTIC, 10058-F4, SCl44 hydrochloride, and CP-690550 were purchased from Sigma Aldrich (St. Louis, Mo.). RCGD 423 (N-(4-Bromophenyl)-4-phenyl-1,3-thiazol-2-amine) was synthesized and provided by MolPort (Riga, Latvia). Fetal, adult and pig chondrocytes were cultured in DMEM F12 medium containing 10% (vol/vol) fetal bovine serum and 1% Penicillin-Streptomycin (vol/vol) at 37° C. in a humidified atmosphere of 95% aid and 5% CO2. Media was replenished with DMEM F12 medium containing 1% (vol/vol) fetal bovine serum and 1% Penicillin-Streptomycin (vol/vol) once treatments were added. For 3-dimensional (3D) cell cultures adult human articular chondrocytes were incubated with or without RCGD 423 using 10% solution of Mebiol® hydrogel from Cosmo Bio (Carlsbad, Calif.) in X-vivo 15 serum free medium from Lonza (Walkersville, Md.) as described previously (Wu et al., 2014).
Treated and non-treated ells were lysed in RIPA Lysis and Extraction Buffer (Pierce, Rockford, Ill.) containing protease inhibitors (Pierce) followed by sonication with a 15-second pulse at a power output of 2 using the VirSonic 100 (SP Industries Company, Warminster, Pa.). Protein concentrations were determined by BCA protein assay (Pierce). Proteins were resolved with SDS-PAGE utilizing 4-15% Mini-PROTEAN TGX Precast Gels and transferred to Trans-Blot Turbo Transfer Packs with a 0.2-μm pore-size nitrocellulose membrane. The SDS-PAGE running buffer, 4-15% Mini-PROTEAN TGX Precast Gels, Trans-Blot Turbo Transfer Packs with a 0.2-μm pore-size nitrocellulose membrane were purchased from Biorad (Hercules, Calif.). Nitrocellulose membranes were blocked in 5% nonfat milk in 0.05% (v/v) Tween 20 (PBST) (Corning, Manassas, Va.). Membranes were then incubated with primary antibodies phospho-STAT3 (#9131), MYC (#5605), NF-κB p65 (#D14E12), pAKT (#9272) Histone 3 (#9715) from Cell Signaling, (Danvers, Mass.); MEK1/2 (ab70613) and p38 (ab795) from Abcam (Cambridge, Mass.) overnight. After washing in PBS containing 0.05% (v/v) Tween 20 (PBST), membranes were incubated with Goat anti-Rabbit IgG (H+L) Secondary Antibody (Thermo Scientific Rockford, Ill.). After washing, membranes were developed with the Clarity Western ECL Blotting Substrate (Hercules, Calif.).
Background: Immunoblotting shows a protein as a band on a membrane.

Setting [3] is: pig adult articular chondrocytes, 1 μM.

“Also recorded” adds a separate entry of the source.

Take “LIF: interleukin 6 (IL-6)-class cytokine”: the “expansion of cartilage tissue in explants” value in assay [1] is recorded as “significant expansion; also recorded: small expansions”. For the same molecule, in assay [2], the “levels of MYC” value is on record as “increase” and the “levels of pSTAT3” value is “increase”.
As to `Brc1ccc(Nc2nc(-c3ccccc3)cs2)cc1` [RCGD 423, N-(4-Bromophenyl)-4-phenyl-1,3-thiazol-2-amine], in assay [1] (after 5 weeks), the COL2 entry is recorded as “increases” and the “glycosaminoglycans (GAGs)” value is “increases”. Also, in assay [1], the “expansion of cartilage tissue in explants” value is listed as “strong expansion”. Also, in assay [2], the “levels of MYC” value is “strong increases” and the “levels of pSTAT3” value is reported as “strong increases”. Moreover, in assay [2] (setting [3]), the “levels of c-MYC” value is on record as “elevated” and the “levels of p-STAT3” value is on record as “elevated”.
